The text below walks through data of patent US20080045564A1 (priority 2006, published 2008).

One data set concerns human CYP1A1. The conditions noted are these: due to increased mRNA expression levels; Bapiro et al.; cited from earlier work.

As for `C=C[C@H]1C[N@@]2CC[C@H]1C[C@H]2[C@H](O)c1ccnc2ccc(OC)cc12` [quinine, cinchonan-9-ol, 6′-methoxy-, (8a,9R)-], the “induction of CYP2B6 activity (statistical significance, summary over three donors)” value in the data set with CYP2B6 (hepatocytes) was “an inducer”. In the data set on human CYP1A1, the “induction of human CYP1A1 activity” value is on record as “induced”.

On to `CCC1(c2ccccc2)C(=O)NC(=O)NC1=O` [Phenobarbital], for which, in the data set with CYP2B6 (1 mM Phenobarbital, each hepatocyte donor), the “induction of CYP2B6 by reference inducer” value is “statistically significant amount of induction”.
